tested on: HCV 1b-377-neo replicon cells; assay: HCV replicon FRET assay; format: cell-based; details: Hepatitis C virus; HCV replicon; read-out: Activity (EC50)
From the text: The HCV replicon cell line was isolated from colonies as described by Lohman, et. al. (Science 1999, 285, 110-113, expressly incorporated by reference in its entirety) and used for all experiments. The HCV replicon has the nucleic acid sequence set forth in EMBL Accession No.: AJ242652, the coding sequence of which is from nt 1801 to 7758.
The coding sequence of the published HCV replicon was synthesized by Operon Technologies, Inc. (Alameda, Calif.), and the fall-length replicon was then assembled in plasmid pGem9zf(+) (Promega, Madison, Wis.) using standard molecular biology techniques. The replicon consists of (i) the HCV 5′ UTR fused to the first 12 amino acids of the capsid protein, (ii) the neomycin phosphotransferase gene (neo), (iii) the IRES from encephalomyocarditis virus (EMCV), and (iv) HCV NS3 to NS5B genes and the HCV 3′ UTR. Plasmid DNAs were linearized with ScaI and RNA transcripts were synthesized in vitro using the T7 MegaScript transcription kit (Ambion, Austin, Tex.) according to manufacturer's directions.
To generate cell lines, 4×10^6 Huh-7 cells (kindly provided by R. Bartenschlager and available from Health Science Research Resources Bank, Japan Health Sciences Foundation) were electroporated (GenePulser System, Bio-Rad) with 10 micrograms(“μg”) of RNA transcript and plated into 100-mm dishes. After 24 hours, selective media containing 1.0 milligrams/milliliter (“mg/mL”) G418 was added and media was changed every 3 to 5 days. […] These cell lines were maintained at 37° C., 5% CO2, 100% relative humidity in DMEM (Cat#11965-084) Gibco-BRL, Rockville, Md., with 10% heat inactivated calf serum (Sigma), 10 mL of 100× penicillin/streptomycin (Cat#15140-122) Gibco-BRL, Rockville, Md., Geneticin (Cat#10131-027) Gibco-BRL, Rockville, Md. at 1 mg/mL. One of the cell lines (deposited as ATCC Accession No. PTA-4583 in the American Type Culture Collection) which had approximately 3,000 copies of HCV replicon RNA/cell was used for development of the assay (HCV 1b-377-neo replicon cells).
To perform the HCV FRET screening assay, 96-well cell culture plates were used. The FRET peptide (Anaspec, Inc., San Jose, Calif.) (Taliani et al., Anal. Biochem. 1996, 240, 60-67, hereby incorporated by reference in its entirety) contains a fluorescence donor, EDANS, near one end of the peptide and an acceptor, DABCYL, near the other end. The fluorescence of the peptide is quenched by […] resonance energy transfer (RET) between the donor and the acceptor, but as the NS3 protease cleaves the peptide the products are released from RET quenching and the fluorescence of the donor becomes apparent.
The assay reagent was made as follows: 5X luciferase cell culture lysis (Cat#E153A, Promega, Madison, Wis.) diluted to 1X with dH2O, NaCl added to […] final, the FRET peptide diluted to 20 micromolar (“μM”) final from a 2 mM stock. HCV 1b-377-neo replicon cells were trypsinized, placed into each well of a 96-well plate and allowed to attach overnight. The next day, the test compounds were added to columns 1 through 10; column 11 was media plus DMSO only, and column 12 contained a titration of interferon or an HCV specific inhibitor as a control (1000 units for A12, B12, 100 units for C12, D12, 10 units for E12, F12 and 1 unit for G12, H12). […] In addition, naïve Huh-7 cells could also be used to replace wells A12 and B12 as a background control.
At subsequent various times (typically 72 hours), 10% final volume Alamar blue (Cat#00-100, Trek Diagnostics, Cleveland, Ohio) was added to each well. The plates were returned to the incubator for 5 hours and then read in the Cytoflour (PE Biosystems) to determine Alamar blue conversion in each well as a measure of cellular toxicity.

Structure (SMILES)	EC50 [nM]
CC(C)(C)CC(=O)N1CCC[C@H]1C(=O)Nc1ccc(/C=C/c2ccc(NC(=O)[C@@H]3CCCN3C(=O)CC(C)(C)C)cc2)cc1 [Example 48]	100 to 1000
CC(=O)N1CCC[C@H]1C(=O)Nc1ccc(/C=C/c2ccc(NC(=O)[C@@H]3CCCN3C(=O)Cc3ccccn3)cc2)cc1 [Example 49]	0.1 to 90
CC(=O)N1CCC[C@H]1C(=O)Nc1ccc(/C=C/c2ccc(NC(=O)[C@@H]3CCCN3C(=O)Cc3cccnc3)cc2)cc1 [Example 50]	0.1 to 90
CC(=O)N1CCC[C@H]1C(=O)Nc1ccc(/C=C/c2ccc(NC(=O)[C@@H]3CCCN3C(=O)Cc3ccncc3)cc2)cc1 [Example 51]	100 to 1000
COC(=O)N1CCC[C@H]1C(=O)Nc1ccc(/C=C/c2ccc(NC(=O)[C@@H]3CCCN3C(=O)OC)cc2)cc1 [Example 52]	100 to 1000
CC(C)(C)C(=O)N1CCC[C@H]1C(=O)Nc1ccc(/C=C/c2ccc(NC(=O)[C@@H]3CCCN3C(=O)C(C)(C)C)cc2)cc1 [Example 53]	0.1 to 90
CC(C)(C)OC(=O)NC1(C(=O)N2CCC[C@H]2C(=O)Nc2ccc(/C=C/c3ccc(NC(=O)[C@@H]4CCCN4C(=O)C4(NC(=O)OC(C)(C)C)CC4)cc3)cc2)CC1 [Example 55]	100 to 1000
CCOC(=O)N1CCC[C@H]1C(=O)Nc1ccc(/C=C/c2ccc(NC(=O)[C@@H]3CCCN3C(=O)C3(C(N)=O)CC3)cc2)cc1 [Example 56]	100 to 1000
CCOC(=O)N1CCC[C@H]1C(=O)Nc1ccc(/C=C/c2ccc(NC(=O)[C@@H]3CCCN3C(=O)OCC)cc2)cc1 [Example 57]	100 to 1000
O=C(Nc1ccc(/C=C/c2ccc(NC(=O)[C@@H]3CCCN3C(=O)c3ccncc3)cc2)cc1)[C@@H]1CCCN1C(=O)c1ccncc1 [Example 58]	0.1 to 90
O=C(Nc1ccc(/C=C/c2ccc(NC(=O)[C@@H]3CCCN3C(=O)c3cccnc3)cc2)cc1)[C@@H]1CCCN1C(=O)c1cccnc1 [Example 59]	100 to 1000
[N-]=[N+]=Nc1ccc(C(=O)N2CCC[C@H]2C(=O)Nc2ccc(/C=C/c3ccc(NC(=O)[C@@H]4CCCN4C(=O)c4ccc(N=[N+]=[N-])cc4)cc3)cc2)cc1 [Example 60]	1000 to 10000
O=C(Nc1ccc(/C=C/c2ccc(NC(=O)[C@@H]3CCCN3C(=O)c3ccccc3)cc2)cc1)[C@@H]1CCCN1C(=O)c1ccccc1 [Example 61]	100 to 1000
NC(=O)C1(C(=O)N2CCC[C@H]2C(=O)Nc2ccc(/C=C/c3ccc(NC(=O)[C@@H]4CCCN4C(=O)C4(C(N)=O)CC4)cc3)cc2)CC1 [Example 62]	100 to 1000
O=C(Nc1ccc(/C=C/c2ccc(NC(=O)[C@@H]3CCCN3C(=O)C3CC3)cc2)cc1)[C@@H]1CCCN1C(=O)Cc1cccnc1 [Example 63]	0.1 to 90
Cn1ccnc1C(=O)N1CCC[C@H]1C(=O)Nc1ccc(/C=C/c2ccc(NC(=O)[C@@H]3CCCN3C(=O)c3nccn3C)cc2)cc1 [Example 64]	0.1 to 90
N#CC1(C(=O)N2CCC[C@H]2C(=O)Nc2ccc(/C=C/c3ccc(NC(=O)[C@@H]4CCCN4C(=O)C4(C#N)CC4)cc3)cc2)CC1 [Example 66]	0.1 to 90
O=C(Nc1ccc(/C=C/c2ccc(NC(=O)[C@@H]3CCCN3C(=O)c3ccco3)cc2)cc1)[C@@H]1CCCN1C(=O)c1ccco1 [Example 67]	100 to 1000
O=C(Nc1ccc(/C=C/c2ccc(NC(=O)[C@@H]3CCCN3C(=O)c3ccsc3)cc2)cc1)[C@@H]1CCCN1C(=O)c1ccsc1 [Example 68]	0.1 to 90
CCC(=O)N1CC=C[C@H]1C(=O)Nc1ccc(/C=C/c2ccc(NC(=O)[C@@H]3C=CCN3C(=O)CC)cc2)cc1 [Example 71]	100 to 1000
CC(C)C(=O)N1CC=C[C@H]1C(=O)Nc1ccc(/C=C/c2ccc(NC(=O)[C@@H]3C=CCN3C(=O)C(C)C)cc2)cc1 [Example 73]	100 to 1000

Structure (SMILES)	EC50 [nM]
O=C(Nc1ccc(/C=C/c2ccc(NC(=O)[C@@H]3C=CCN3C(=O)C3CCC3)cc2)cc1)[C@@H]1C=CCN1C(=O)C1CCC1 [Example 74]	100 to 1000
Cc1ncccc1C(=O)N1CCC[C@H]1C(=O)Nc1ccc(/C=C/c2ccc(NC(=O)[C@@H]3CCCN3C(=O)c3cccnc3C)cc2)cc1 [Example 76]	100 to 1000
O=C(Nc1ccc(/C=C/c2ccc(NC(=O)[C@@H]3CCCN3C(=O)c3cn[nH]c3)cc2)cc1)[C@@H]1CCCN1C(=O)c1cn[nH]c1 [Example 77]	0.1 to 90
O=C(Nc1ccc(/C=C/c2ccc(NC(=O)[C@@H]3CCCN3C(=O)c3ccno3)cc2)cc1)[C@@H]1CCCN1C(=O)c1ccno1 [Example 79]	0.1 to 90
Cc1ccc(C(=O)N2CCC[C@H]2C(=O)Nc2ccc(/C=C/c3ccc(NC(=O)[C@@H]4CCCN4C(=O)c4ccc(C)nc4)cc3)cc2)cn1 [Example 80]	100 to 1000
CSCC(=O)N1CCC[C@H]1C(=O)Nc1ccc(/C=C/c2ccc(NC(=O)[C@@H]3CCCN3C(=O)CSC)cc2)cc1 [Example 81]	0.1 to 90
CN(C)c1ccc(C(=O)N2CCC[C@H]2C(=O)Nc2ccc(/C=C/c3ccc(NC(=O)[C@@H]4CCCN4C(=O)c4ccc(N(C)C)cc4)cc3)cc2)cc1 [Example 82]	1000 to 10000
CN(C)CC(=O)N1CCC[C@H]1C(=O)Nc1ccc(/C=C/c2ccc(NC(=O)[C@@H]3CCCN3C(=O)c3ccc(N(C)C)cc3)cc2)cc1 [Example 83]	100 to 1000
CSCC(=O)N1CCC[C@H]1C(=O)Nc1ccc(/C=C/c2ccc(NC(=O)[C@@H]3CCCN3C(=O)c3ccccn3)cc2)cc1 [Example 84]	0.1 to 90
O=C(Nc1ccc(/C=C/c2ccc(NC(=O)[C@@H]3CCCN3C(=O)C3CCC3)cc2)cc1)[C@@H]1CCCN1C(=O)c1ccccn1 [Example 85]	0.1 to 90
CSCC(=O)N1CCC[C@H]1C(=O)Nc1ccc(/C=C/c2ccc(NC(=O)[C@@H]3CCCN3C(=O)c3cccnc3)cc2)cc1 [Example 86]	0.1 to 90
COCC(=O)N1CCC[C@H]1C(=O)Nc1ccc(/C=C/c2ccc(NC(=O)[C@@H]3CCCN3C(=O)c3cccnc3)cc2)cc1 [Example 87]	0.1 to 90
O=C(Nc1ccc(/C=C/c2ccc(NC(=O)[C@@H]3CCCN3C(=O)C3CCC3)cc2)cc1)[C@@H]1CCCN1C(=O)c1cccnc1 [Example 88]	0.1 to 90
CC(C)C(=O)N1CCC[C@H]1C(=O)Nc1ccc(/C=C/c2ccc(NC(=O)[C@@H]3CCCN3C(=O)c3cccnc3)cc2)cc1 [Example 89]	0.1 to 90
CCC(=O)N1CCC[C@H]1C(=O)Nc1ccc(/C=C/c2ccc(NC(=O)[C@@H]3CCCN3C(=O)c3cccnc3)cc2)cc1 [Example 90]	0.1 to 90
COCC(=O)N1CCC[C@H]1C(=O)Nc1ccc(/C=C/c2ccc(NC(=O)[C@@H]3CCCN3C(=O)c3ccc(N(C)C)cc3)cc2)cc1 [Example 91]	100 to 1000
CN(C)c1ccc(C(=O)N2CCC[C@H]2C(=O)Nc2ccc(/C=C/c3ccc(NC(=O)[C@@H]4CCCN4C(=O)C4CCC4)cc3)cc2)cc1 [Example 92]	0.1 to 90
CC(C)C(=O)N1CCC[C@H]1C(=O)Nc1ccc(/C=C/c2ccc(NC(=O)[C@@H]3CCCN3C(=O)c3ccc(N(C)C)cc3)cc2)cc1 [Example 93]	100 to 1000
CSCC(=O)N1CCC[C@H]1C(=O)Nc1ccc(/C=C/c2ccc(NC(=O)[C@@H]3CCCN3C(=O)Cc3cc(C)no3)cc2)cc1 [Example 94]	0.1 to 90
COCC(=O)N1CCC[C@H]1C(=O)Nc1ccc(/C=C/c2ccc(NC(=O)[C@@H]3CCCN3C(=O)Cc3cc(C)no3)cc2)cc1 [Example 95]	0.1 to 90
Cc1cc(CC(=O)N2CCC[C@H]2C(=O)Nc2ccc(/C=C/c3ccc(NC(=O)[C@@H]4CCCN4C(=O)C4CCC4)cc3)cc2)on1 [Example 96]	0.1 to 90
